Laboratory results reported in the NIST ThermoML archive (doi:10.1021/acs.jced.5b00488).
± gives the expanded uncertainty stated by the source.

Conditions: Crystal; visual observation

Triple point temperature: 468.15 ± 4 K
SMILES: CC(COCc1ccc(O)c2ncccc12)(COCc1ccc(O)c2ncccc12)COCc1ccc(O)c2ncccc12
